Measured values: US20150344457A1, “METHODS OF INHIBITING PRMT5” (EPIZYME, INC., priority 2012, published 2015)
Where two headings read alike, the source gives them in different places.

Columns and labels:
Z-138 cells [1] = assay: Z-138 Methylation Assay (In Cell Western for symmetric di-methyl arginine and DNA content); assay type: cell-based; conditions: Homo sapiens
Text: Z-138 suspension cells were purchased from ATCC (American Type Culture Collection, Manassas, Va.). RPMI/Glutamax medium, penicillin-streptomycin, heat inactivated fetal bovine serum, and D-PBS were purchased from Life Technologies, Grand Island, N.Y., USA. Odyssey blocking buffer, 800CW goat anti-rabbit IgG (H+L) antibody, and Licor Odyssey infrared scanner were purchased from Licor Biosciences, Lincoln, Nebr., USA. Symmetric di-methyl arginine antibody was purchased from EMD Millipore, Billerica, Mass., USA. 16% Paraformaldehyde was purchased from Electron Microscopy Sciences, Hatfield, Pa., USA.
Z-138 suspension cells were maintained in growth medium (RPMI 1640 supplemented with 10% v/v heat inactivated fetal bovine serum and 100 units/mL penicillin-streptomycin) and cultured at 37° C. under 5% CO2.
Cell Treatment, in Cell Western (ICW) for Detection of Symmetric Di-Methyl Arginine and DNA Content.
Z-138 cells were seeded in assay medium at a concentration of 50,000 cells per mL to a 384-well cell culture plate with 50 μL per well. Compound (100 nL) from 384 well source plates was added directly to 384 well cell plate. Plates were incubated at 37° C., 5% CO2 for 96 hours. After four days of incubation, 40 μL of cells from incubated plates were added to poly-D-lysine coated 384 well culture plates (BD Biosciences 356697). Plates were incubated at room temperature for 30 minutes then incubated at 37° C., 5% CO2 for 5 hours. After the incubation, 40 μL per well of 8% paraformaldehyde in PBS (16% paraformaldahyde was diluted to 8% in PBS) was added to each plate and incubated for 30 minutes. Plates were transferred to a Biotek 405 plate washer and washed 5 times with 100 μL per well of wash buffer (1×PBS with 0.1% Triton X-100 (v/v)). Next 30 μL per well of Odyssey blocking buffer were added to each plate and incubated 1 hour at room temperature. Blocking buffer was removed and 20 μL per well of primary antibody was added (symmetric di-methyl arginine diluted 1:100 in Odyssey buffer with 0.1% Tween 20 (v/v)) and plates were incubated overnight (16 hours) at 4° C. Plates were washed 5 times with 100 μL per well of wash buffer. Next 20 μL per well of secondary antibody was added (1:200 800CW goat anti-rabbit IgG (H+L) antibody, 1:1000 DRAQS (Biostatus limited) in Odyssey buffer with 0.1% Tween 20 (v/v)) and incubated for 1 hour at room temperature. The plates were washed 5 times with 100 μL per well wash buffer then 1 time with 100 μL per well of water. Plates were allowed to dry at room temperature then imaged on the Licor Odyssey machine which measures integrated intensity at 700 nm and 800 nm wavelengths. Both 700 and 800 channels were scanned.
First, the ratio for each well was determined by:
Each plate included fourteen control wells of DMSO only treatment (minimum inhibition) as well as fourteen control wells for maximum inhibition treated with 3 μM of a reference compound (Background wells). The average of the ratio values for each control type was calculated and used to determine the percent inhibition for each test well in the plate. Reference compound was serially diluted three-fold in DMSO for a total of nine test concentrations, beginning at 3 μM. Percent inhibition was determined and IC50 curves were generated using triplicate wells per concentration of compound.

PRMT5/MEP50 = biological target: T1, PRMT5/MEP50 (Homo sapiens, UniProt O14744); assay: PRMT5 Biochemical Assay (PRMT5/MEP50 enzyme assay on peptide substrate, 3H-SAM Flashplate); conditions: read-out: Biochemical IC50
T1 construct: Expressed full-length human Flag-PRMT5/6His-MeP50 protein complex was purified; made in house; host or cells: Spodoptera frugiperda (SF9) insect cells, baculovirus (pDEST8)
T1 sequence (O14744 with tags, fused parts or gaps): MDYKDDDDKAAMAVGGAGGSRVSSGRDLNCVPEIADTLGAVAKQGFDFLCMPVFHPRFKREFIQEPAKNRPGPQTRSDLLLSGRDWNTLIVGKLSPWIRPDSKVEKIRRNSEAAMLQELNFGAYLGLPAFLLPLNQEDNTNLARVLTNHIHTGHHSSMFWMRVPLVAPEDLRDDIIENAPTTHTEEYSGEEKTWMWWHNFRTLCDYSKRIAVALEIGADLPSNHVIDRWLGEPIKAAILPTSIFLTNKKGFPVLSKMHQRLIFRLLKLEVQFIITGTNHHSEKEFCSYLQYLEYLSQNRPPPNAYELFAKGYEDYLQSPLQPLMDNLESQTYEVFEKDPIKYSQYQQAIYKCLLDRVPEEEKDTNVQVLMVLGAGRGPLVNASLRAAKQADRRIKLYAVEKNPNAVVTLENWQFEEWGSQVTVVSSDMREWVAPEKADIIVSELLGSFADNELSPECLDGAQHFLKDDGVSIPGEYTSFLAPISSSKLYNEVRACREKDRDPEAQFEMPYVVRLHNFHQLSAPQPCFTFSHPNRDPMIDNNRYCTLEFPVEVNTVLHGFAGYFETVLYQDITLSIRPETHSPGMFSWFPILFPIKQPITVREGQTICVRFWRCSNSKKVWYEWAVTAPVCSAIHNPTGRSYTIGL
T1 sequence (Q9BQA1 with tags, fused parts or gaps partner limits assumed): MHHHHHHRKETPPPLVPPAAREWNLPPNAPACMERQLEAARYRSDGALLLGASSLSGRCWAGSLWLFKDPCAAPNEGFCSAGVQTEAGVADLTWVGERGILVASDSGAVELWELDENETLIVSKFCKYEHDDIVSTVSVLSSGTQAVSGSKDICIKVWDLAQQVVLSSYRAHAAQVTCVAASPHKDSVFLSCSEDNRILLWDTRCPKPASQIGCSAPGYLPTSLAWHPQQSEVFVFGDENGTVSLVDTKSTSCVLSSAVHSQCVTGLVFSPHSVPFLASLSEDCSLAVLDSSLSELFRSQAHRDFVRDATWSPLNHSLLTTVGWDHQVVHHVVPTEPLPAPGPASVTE

Z-138 cells [2] = assay: Z-138 Proliferation Assay (Cell Titer Glo, 5 days); assay type: cell-based; conditions: Homo sapiens
Text: Z-138 Proliferation Assay
Z-138 suspension cells were purchased from ATCC (American Type Culture Collection, Manassas, Va.). RPMI/Glutamax medium, penicillin-streptomycin, heat inactivated fetal bovine serum were purchased from Life Technologies, Grand Island, N.Y., USA. V-bottom polypropylene 384-well plates were purchased from Greiner Bio-One, Monroe, N.C., USA. Cell culture 384-well white opaque plates were purchased from Perkin Elmer, Waltham, Mass., USA. Cell-Titer Gb® was purchased from Promega Corporation, Madison, Wis., USA. SpectraMax M5 plate reader was purchased from Molecular Devices LLC, Sunnyvale, Calif., USA.
Z-138 suspension cells were maintained in growth medium (RPMI 1640 supplemented with 10% v/v heat inactivated fetal bovine serum and cultured at 37° C. under 5% CO2. Under assay conditions, cells were incubated in assay medium (RPMI 1640 supplemented with 10% v/v heat inactivated fetal bovine serum and 100 units/mL penicillin-streptomycin) at 37° C. under 5% CO2.
For the assessment of the effect of compounds on the proliferation of the Z-138 cell line, exponentially growing cells were plated in 384-well white opaque plates at a density of 10,000 cells/ml in a final volume of 50 μl of assay medium. A compound source plate was prepared by performing triplicate nine-point 3-fold serial dilutions in DMSO, beginning at 10 mM (final top concentration of compound in the assay was 20 μM and the DMSO was 0.2%). A 100 nL aliquot from the compound stock plate was added to its respective well in the cell plate. […] After addition of compounds, assay plates were incubated for 5 days at 37° C., 5% CO2, relative humidity >90%.
Cell viability was measured by quantitation of ATP present in the cell cultures, adding 35 μl of Cell Titer Glo® reagent to the cell plates. Luminescence was read in the SpectraMax M5 microplate reader. The concentration of compound inhibiting cell viability by 50% was determined using a 4-parametric fit of the normalized dose response curves.

[3] = Table A-2, 96 hours, symmetric di-methyl arginine, read-out: ICW EC50
[4] = Table A-2, PRMT5/MEP50 4 nM, 3H-SAM 75 nM, peptide 40 nM

O=C(COc1ccccc1)NCC(O)CN1CCc2ccccc2C1 (stereo not drawn) [Compound A1]
EC50 (Z-138 cells [1]; [3]): 0.101 to 1 µM
IC50 (PRMT5/MEP50; [4]): 0.101 to 1 µM

Cn1cnc2ccc(OCC(=O)NCC(O)CN3CCc4ccccc4C3)cc21 (stereo not drawn) [Compound A30]
EC50 (Z-138 cells [2]; 120 h, Table A-2, 5 days, top concentration 20 μM): 10 to 50 µM
EC50 (Z-138 cells [1]; [3]): 0.101 to 1 µM

Cn1nccc1-c1cccc(CC(=O)NCC(O)CN2CCc3ccccc3C2)c1 (stereo not drawn) [Compound A54]
EC50 (Z-138 cells [1]; [3]): 0.101 to 1 µM
IC50 (PRMT5/MEP50; [4]): 0.101 to 1 µM

O=C(Cc1cccc2cccnc12)NCC(O)CN1CCc2ccccc2C1 (stereo not drawn) [Compound A60]
EC50 (Z-138 cells [1]; [3]): 1 to 10 µM
IC50 (PRMT5/MEP50; [4]): 0.101 to 1 µM

Cn1cnc2ccc(NCC(=O)NCC(O)CN3CCc4ccccc4C3)cc21 (stereo not drawn) [Compound A69]
EC50 (Z-138 cells [1]; [3]): 1 to 10 µM
IC50 (PRMT5/MEP50; [4]): 0.101 to 1 µM

O=C(COc1ccccc1N1CCOCC1)NC[C@@H](O)CN1CCc2ccccc2C1 [Compound A78]
EC50 (Z-138 cells [1]; [3]): 0.101 to 1 µM
IC50 (PRMT5/MEP50; [4]): 0.101 to 1 µM

CN1CCN(c2ccccc2OCC(=O)NC[C@@H](O)CN2CCc3ccccc3C2)CC1 [Compound A85]
EC50 (Z-138 cells [1]; [3]): 1 to 10 µM
IC50 (PRMT5/MEP50; [4]): 1 to 10 µM

CN(C)CCOc1ccccc1OCC(=O)NC[C@@H](O)CN1CCc2ccccc2C1 [Compound A89]
EC50 (Z-138 cells [1]; [3]): 1 to 10 µM
IC50 (PRMT5/MEP50; [4]): 0.101 to 1 µM

Cn1ccnc1-c1ccccc1OCC(=O)NCC(O)CN1CCc2ccccc2C1 (stereo not drawn) [Compound A138]
EC50 (Z-138 cells [1]; [3]): 1 to 10 µM
IC50 (PRMT5/MEP50; [4]): 0.101 to 1 µM

Cc1cn(C)c2cccc(OCC(=O)NCC(O)CN3CCc4ccccc4C3)c12 (stereo not drawn) [Compound A146]
EC50 (Z-138 cells [1]; [3]): 0.101 to 1 µM
IC50 (PRMT5/MEP50; [4]): < 0.1 µM

O=C(COc1ccccc1S(=O)(=O)N1CCOCC1)NCC(O)CN1CCc2ccccc2C1 (stereo not drawn) [Compound A149]
EC50 (Z-138 cells [1]; [3]): 0.101 to 1 µM
IC50 (PRMT5/MEP50; [4]): < 0.1 µM

COc1cc(Cl)cc(-c2cccc(OCC(O)CN3CCc4ccccc4C3)c2)c1 (stereo not drawn) [Compound D110]
EC50 (Z-138 cells [1]; Table D-2, read-out: ICW EC50): > 20 µM
IC50 (PRMT5/MEP50; Table D-2): 0.101 to 1 µM

N#CCc1cccc(-c2cccc(OCC(O)CN3CCc4ccccc4C3)c2)c1 (stereo not drawn) [Compound D111]
EC50 (Z-138 cells [1]; Table D-2, read-out: ICW EC50): 1 to 10 µM
IC50 (PRMT5/MEP50; Table D-2): 0.101 to 1 µM

Cn1cc2ccc(-c3cccc(OCC(O)CN4CCc5ccccc5C4)c3)cc2n1 (stereo not drawn) [Compound D114]
EC50 (Z-138 cells [1]; Table D-2, read-out: ICW EC50): > 20 µM
IC50 (PRMT5/MEP50; Table D-2): 0.101 to 1 µM

OC(COc1cccc(-c2ccccc2F)c1)CN1CCc2ccccc2C1 (stereo not drawn) [Compound D154]
EC50 (Z-138 cells [1]; Table D-2, read-out: ICW EC50): 1 to 10 µM
IC50 (PRMT5/MEP50; Table D-2): 0.101 to 1 µM

O=C(Nc1cccc(OCC(O)CN2CCc3ccccc3C2)c1)c1cccnn1 (stereo not drawn) [Compound D164]
EC50 (Z-138 cells [1]; Table D-2, read-out: ICW EC50): 1 to 10 µM
IC50 (PRMT5/MEP50; Table D-2): 1 to 10 µM

Cn1cnc2ccc(-c3cccc(OC[C@@H](O)CN4CCc5ccccc5C4)c3)cc21 [Compound D173]
EC50 (Z-138 cells [2]; Table D-2): 1 to 10 µM
EC50 (Z-138 cells [1]; Table D-2, read-out: ICW EC50): 1 to 10 µM

O[C@H](COc1cccc(-c2cccc3cccnc23)c1)CN1CCc2ccccc2C1 [Compound D258]
EC50 (Z-138 cells [2]; Table D-2): > 20 µM
EC50 (Z-138 cells [1]; Table D-2, read-out: ICW EC50): 1 to 10 µM

Cn1cncc1C(=O)Nc1cccc(OC[C@H](O)CN2CCc3ccccc3C2)c1 [Compound D259]
EC50 (Z-138 cells [2]; Table D-2): 10 to 40 µM
EC50 (Z-138 cells [1]; Table D-2, read-out: ICW EC50): 0.101 to 1 µM

Cn1cnc2ccc(-c3ccnc(NC[C@@H](O)CN4CCc5ccccc5C4)c3)cc21 [Compound D276]
EC50 (Z-138 cells [2]; Table D-2): 1 to 10 µM
EC50 (Z-138 cells [1]; Table D-2, read-out: ICW EC50): 1 to 10 µM

O=C(NCC(O)CN1Cc2ccccc2C1)c1cccc(NC2CCOCC2)c1 (stereo not drawn) [Compound E8.]
EC50 (Z-138 cells [1]; Table E-2, read-out: ICW EC50): 0.101 to 1 µM
IC50 (PRMT5/MEP50; Table E-2): 0.101 to 1 µM
